pEC50: −log10 of the molar value. Structures can show the parent of a compound that is named as a salt. Bounds are passed on as bounds.

The nature of the assay: Free radical-scavenging/antioxidant assay (DPPH). The assay is classed as biochemical. As to conditions: 50 μM DPPH in 80% methanol, absorbance at 520 nm, 24 h time point (steady state); read-out: EC50 (concentration at which a compound reduces by 50% the peak absorbance of DPPH at 520 nm). The procedure: Nitrone compounds of the present invention were tested for their free-radical scavenging/antioxidant activity in an in vitro assay that is accepted by those skilled in the art as a model for conditions involving the generation of free radicals. The assay is based on a reaction between a free-radical donor, 2,2-diphenyl-1-picrylhydrazyl (DPPH), and a radical scavenger/antioxidant to be tested for free-radical scavenging activity. Upon donation of the free-radical electron to the purported radical scavenger, the peak visible absorbance of DPPH (515-520 nm) decreases so that optical density readings at this part of the visual spectrum reflect the progression of the following reaction: DPPH∩+AH→DPPH-H+A∩ where AH is a hypothetical radical scavenger/antioxidant. The assay is based on a protocol originally detailed in Brand-Williams, W. et al., 1995, Use of a Free Radical Method to Evaluate Antioxidant Activity, Lebensm. Wiss. Technol., 28:25-30, with further modifications described in L. R. Fukumoto and G. Mazza, 2000, Assessing Antioxidant and Prooxidant Activities of Phenolic Compounds, J. Agric. Food Chem., 48:3597-3604.
The antioxidant assay was performed using Perkin-Elmer 96-well, clear-bottom, black-wall plates (ordered from E & K Scientific Products) and a Tecan Safire absorbance plate reader. The positive controls were Trolox (6-hydroxy-2,5,7,8-tetramethylchromane-2-carboxylic acid, Sigma-Aldrich), BHA (2(3)-tert-butylhydroquinone monomethyl ether, Sigma-Aldrich), PBN (C-(phenyl)-N-(tert-butyl)nitrone, Sigma-Aldrich) and S-PBN (C-(2-sulfophenyl)-N-(tert-butyl)nitrone, sodium salt, prepared according to E. G. Janzen and R. V. Shetty, 1979, Tetrahedron Lett., 35: 3229-32), and the negative control (i.e., vehicle) was DMSO. In brief, 2 μL of 100×DMSO stock of the desired final concentration of each control or nitrone compound to be tested in the same batch was added to a separate well. To each well was then added 198 μL of a freshly made 50 μM DPPH (Sigma-Aldrich) solution in 80% methanol using a multi-channel pipette. The absorbance was immediately read on the plate reader at 520 nm and thereafter read periodically to assess kinetics until all reactions reached completion (i.e., steady state). Since the steady-state point was 24 h, the assay results are shown from the 24 h time point. The absorbance at 520 nm (OD) was plotted versus the concentrations of the controls and nitrone compounds to assess dose-response and interpolate the EC50 values of the controls and test compounds.

As to `[O-]/[N+](=C\c1cccnc1N1CCOCC1)C1CCCCC1` [Example 47, N-Cyclohexyl-C-[2-(1-morpholino)pyridin-3-yl]nitrone], the pEC50 was less than 3.00.

On to `Cc1c(C)c2c(c(C)c1O)CCC(C)(C(=O)O)O2` (centres unmarked) [Trolox, 6-hydroxy-2,5,7,8-tetramethylchromane-2-carboxylic acid, reference compound], for which the pEC50 was greater than 5.00.

Consider `CSc1nc2ccccc2cc1/C=[N+](\[O-])C(C)(C)C` [Example 49, N-(tert-Butyl)-C-[2-(methylthio)quinolin-3-yl]nitrone], for which the pEC50 was 3.00 to 3.30.

In the case of `COC(=O)c1ccccc1/C=[N+](\[O-])C(C)(C)C` [Example 1, N-(tert-Butyl)-C-[2-(methoxycarbonyl)phenyl]nitrone], the pEC50 was 3.00 to 3.30.

With `O=[N+]([O-])c1ccc(SC2CCCC2)c(/C=[N+](\[O-])C2CCCCC2)c1` [Example 30, N-Cyclohexyl-C-[2-(cyclopentylthio)-5-nitrophenyl]nitrone], the pEC50 was less than 3.00.

Take `O=[N+]([O-])c1ccc(Sc2ccccn2)c(/C=[N+](\[O-])C2CCCCC2)c1` [Example 37, N-Cyclohexyl-C-[5-nitro-2-(pyridin-2-ylthio)phenyl]nitrone]: the pEC50 is 4.00 to 5.00.

As to `O=C(O)c1ccccc1/C=[N+](\[O-])C1CCCCC1` [Example 8, N-Cyclohexyl-C-(2-carboxyphenyl)nitrone], the pEC50 was 4.00 to 5.00.

As to `COC(=O)c1[nH]c2ccccc2c1/C=[N+](\[O-])Cc1ccccc1` [Example 40, N-Benzyl-C-[2-(methoxycarbonyl)-1H-indol-3-yl]nitrone], the pEC50 was less than 3.00.

For the compound `CC(C)(C)C(=O)Nc1cccc(/C=[N+](\[O-])Cc2ccccc2)n1` [Example 53, N-Benzyl-C-[6-(2,2-dimethylpropanamido)pyridin-2-yl]nitrone], the pEC50 is 4.00 to 5.00.

`COC(=O)c1c(/C=[N+](\[O-])Cc2ccccc2)cc(OC)cc1OC` [Example 6, N-Benzyl-C-[2-(methoxycarbonyl)-3,5-dimethoxyphenyl]nitrone]: the pEC50 was 3.30 to 4.00.

Turning to `[O-]/[N+](=C\c1ccccc1N1CCN(c2ccc(C(F)(F)F)cn2)CC1)Cc1ccccc1` [Example 25, N-Benzyl-C-{2-[4-(5-(trifluoromethyl)pyridin-2-yl)piperazin-1-yl]phenyl}nitrone], the pEC50 was greater than 5.00.

As to `CC(C)(C)[N+]([O-])=Cc1ccccc1S(=O)(=O)O` [S-PBN, C-(2-sulfophenyl)-N-(tert-butyl)nitrone, sodium salt, reference compound], the pEC50 is less than 3.00.

On to `[O-]/[N+](=C\c1ccccc1Sc1ccc(Cl)cc1)Cc1ccccc1` [Example 28, N-Benzyl-C-[2-(4-chlorophenylthio)phenyl]nitrone], for which the pEC50 was 3.30 to 4.00.

Consider `O=C(O)c1ccsc1/C=[N+](\[O-])C1CCCCC1` [Example 42, N-Cyclohexyl-C-(3-carboxythiophen-2-yl]nitrone], for which the pEC50 is 3.30 to 4.00.

Values taken from patent US20070275932A1, “Aryl, heteroaromatic and bicyclic aryl nitrone compounds, prodrugs and pharmaceutical compositions of the same to treat human disorders” (Renovis, Inc., priority 2003, published 2007).
